Data on 1 substance can be found in patent US9549946B2, “Materials and methods for preventing and treating microbe-mediated epithelial disorders” (priority 2002, dated 2017).

The test system of this data set is human intestinal epithelial cells. The data set is described as follows: Epithelial transport function (Na+/H+ exchange, glucose transport). Type of data set: cell-based. The text has this:
The resistance of PEG-cultured human intestinal epithelial cells to the barrier-disrupting effects of P. aeruginosa, as judged by the maintenance of TEER, offers a practical approach to stabilizing tight junctional barrier function in the face of a challenge from invading pathogens. Further evidence of the therapeutic value of PEG 15-20 is that epithelial transport function (Na^+/H^+ exchange, glucose transport) is unaffected by this compound.

As to polyethylene glycol [PEG 15-20], the “epithelial transport function (Na+/H+ exchange, glucose transport)” value is listed as “unaffected”.
